Experiment [1] has as its target FR1 (Homo sapiens, UniProt P15328). To be noted: read-out: affinity for FR1; cited from earlier work.
Experiment [2] deals with FR2 (Homo sapiens, UniProt P14207). The following applies: read-out: affinity for FR2; cited from earlier work.
In experiment [3] the test system is LNCaP xenografts. Nature of the experiment: LNCaP prostate cancer xenografts. The experiment is classed as in vivo. As to the method: Each of the photographs in FIG. 6, panel C and panel D depicts a representative animal treated with vehicle (FIG. 6, panel C) or bortezomib-loaded FH (1.0 mM) (FIG. 6, panel D).
Studies in breast cancer described a “low intracellular iron” phenotype, characterized by high ferroportin, which was associated with good prognosis. In contrast, the “high intracellular iron” phenotype, characterized by low ferroportin and high hepcidin, was associated with a poor prognosis (Pinnix et al. (2010), Sci. Transl. Med., 2(43): 43ra56). Recently, a similar observation was made in prostate cancer (Tesfay et al. (2015) Cancer Res., 75(11):2254-63. To extend the analysis to prostate cancer, LNCaP prostate cancer xenografts were treated with FH-loaded bortezomib (a ROS-inducing drug).
FH alone was able to decrease tumor volume by about 33% (panel b). […] Free bortezomib was not effective, but when loaded into FH a significant therapy effect was achieved as shown in (panels a and b). Importantly, FH alone also exerted an effect, decreasing tumor volume. Each of the photographs in panel c and panel d depicts a representative animal treated with vehicle (panel c) or bortezomib-loaded FH (1.0 mM) (panel d).

For experiment [4], the system named is 22RV1 cells. Description: FPN expression after hepcidin therapy. Type of experiment: cell-based. The source says:
As a followup, eight different genomic datasets available for prostate cancer on cBioPortal (www.cbioportal.org) containing whole genome data from 1229 prostate cancer patients were mined for analysis. […] FACS and Western Blotting confirmed higher expression of FPN in 22RV1 compared to DU145 (FIG. 7, panel C). […] In 22RV1 cells with higher FPN higher levels of erastin were required compared to DU145 cells with low FPN (FIG. 7, panel E).

Ends that are not written are not given here.

Chain of FR1 (P15328 25-234): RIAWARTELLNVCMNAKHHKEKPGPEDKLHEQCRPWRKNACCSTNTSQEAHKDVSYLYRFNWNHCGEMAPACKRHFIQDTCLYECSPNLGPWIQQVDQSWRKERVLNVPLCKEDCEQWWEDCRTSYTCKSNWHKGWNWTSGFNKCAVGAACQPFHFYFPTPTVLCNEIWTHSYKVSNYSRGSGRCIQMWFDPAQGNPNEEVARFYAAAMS
Chain of FR2 (P14207 17-230): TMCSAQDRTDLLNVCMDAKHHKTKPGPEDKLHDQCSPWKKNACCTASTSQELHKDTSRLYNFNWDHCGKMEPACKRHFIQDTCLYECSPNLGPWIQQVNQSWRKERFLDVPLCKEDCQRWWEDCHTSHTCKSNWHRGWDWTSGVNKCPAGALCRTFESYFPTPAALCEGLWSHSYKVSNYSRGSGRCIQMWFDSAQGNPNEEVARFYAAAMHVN

In the case of `CN1c2c(nc(N)[nH]c2=O)NC[C@@H]1CNc1ccc(C(=O)N[C@@H](CCC(=O)O)C(=O)O)cc1` [6S 5-methyltetrahydrofolate], the values for the Kd in experiment [1] and in experiment [2] were 55 nM and 1 nM, respectively.
Turning to `CC(C)C[C@H](NC(=O)[C@H](Cc1ccccc1)NC(=O)c1cnccn1)B(O)O` [bortezomib], in experiment [3], the therapeutic effect entry is “not effective”.
As to “hepcidin (DTHFPICIFCCGCCHRSKCGMCCKT; ends and bridges not checked; cysteine pairing not given here; UniProt P81172 60-84, looked up) [peptide hormone, key regulator of iron homeostasis]”, the “FPN on the cell surface” value in experiment [4] is listed as “lowered FPN on the cell surface”.

Values taken from patent US20180296595A1, “METHODS AND COMPOSITIONS FOR CANCER TREATMENT” (Memorial Sloan Kettering Cancer Center, priority 2015, published 2018).
